We go through one compound from publication PMC9865052, “Miltefosine and Nifuratel Combination: A Promising Therapy for the Treatment of Leishmania donovani Visceral Leishmaniasis” (International Journal of Molecular Sciences, 2023).

This assay has as its target T1, Trypanothione reductase (TR) (Leishmania donovani, UniProt P39050).
T1 construct: gene TPR; native enzyme in cell extracts of L. donovani axenic amastigotes
Kind of assay: DTNB-coupled colorimetric TR activity assay ([…] nm) in L. donovani cell extract; Lineweaver-Burk analysis. Format: biochemical.

T1 sequence (P39050 whole entry): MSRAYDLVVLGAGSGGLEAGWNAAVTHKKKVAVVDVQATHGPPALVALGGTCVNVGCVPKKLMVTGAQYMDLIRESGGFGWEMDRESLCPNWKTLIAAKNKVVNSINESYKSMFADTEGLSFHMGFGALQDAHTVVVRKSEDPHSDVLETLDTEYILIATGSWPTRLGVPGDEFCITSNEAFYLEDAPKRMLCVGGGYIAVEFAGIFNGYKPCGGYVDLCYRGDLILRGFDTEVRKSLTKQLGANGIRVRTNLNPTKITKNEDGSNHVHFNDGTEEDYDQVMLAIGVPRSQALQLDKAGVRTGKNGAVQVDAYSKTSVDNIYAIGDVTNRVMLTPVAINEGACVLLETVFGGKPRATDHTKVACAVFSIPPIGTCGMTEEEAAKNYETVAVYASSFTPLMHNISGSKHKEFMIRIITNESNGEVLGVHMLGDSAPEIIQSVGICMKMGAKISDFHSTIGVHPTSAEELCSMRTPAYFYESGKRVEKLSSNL

Usually Ki stands for a measure of affinity in units of concentration, obtained from inhibition or displacement. Low readings indicate a stronger hold on the target, high ones a looser hold on the target. In turn, `CSCC1CN(/N=C/c2ccc([N+](=O)[O-])o2)C(=O)O1` (stereo not shown) [NFT, nifuratel] gave a Ki of 3.15 ± 0.5 µM.
